Test results reported in patent US4582820A, “Orally administered biologically active peptides and proteins” (Research Corporation, priority 1982, dated 1986).
Values joined by “and” are separate entries in the source; they are usually repeats but may differ in a detail not shown here. Equal values may be shown once. Read-outs that look alike come from different tables or passages of the source.

Experiments:
Mice = details: cited from earlier work; for LD50: Mice
[1] = test system: diabetic (streptozotocin-treated) rats; test: Oral administration in diabetic rats, plasma glucose; type: in vivo, rat; details: for Glucose / Glucose Level (% initial level): unmodified insulin oral 80 μ/kg
Method: (§1) The term "diabetic rat" in the following tests refers to rats having been treated with streptozoticin by intravenous injection at a dosage of 75 mg/kg at least 4 days prior to the experiments in question. All rats used in the experiments had been fasting 12-18 hours prior to the experiments. Blood samples were taken at appropriate intervals as disclosed in the tables from a vein cannula which was implanted in a jugular vein. During the experiments, rats were awake, were able to move freely and had access to water (but no food). Plasma glucose was measured on a Beckman Glucose Analyzer 2 employing the enzymatic reaction of β-D-glucose with oxygen and measuring oxygen consumption rather than hydrogen peroxide formation.
B. Oral Administration of Regular and Modified Insulin (at 80μ/kg) in Normal and Diabetic Rats.
The three controls were regular insulin, a carrier complex of SDS:TEA, and a complex of albumin:SDS:TEA in the same weight ratio as than in the insulin complex; i.e., albumin:SDS:TEA=5:7.5:3.6.
The results of oral administrations of modified insulin and carrier complex (SDS:TEA=1:1 by mole) in the amount equivalent to that in the sandwich complex of insulin calculated based on 80μof insulin per kg of rat in normal rats are shown in Tables 3 and 4. The results of oral administrations of modified insulin, regular insulin, carrier complex and the sandwich complex of albumin (albumin:SDS:TEA in a weight ratio of 5:7.5:3.6) in diabetic rats are shown in Tables 5, 6, 7 and 8 respectively.

[2] = test system: diabetic (streptozotocin-treated) rats; test: Intravenous administration in diabetic rats, plasma glucose; type: in vivo; details: for % Initial plasma glucose conc. / Actual plasma glucose: iv 0.5 μ/kg
Method: as §1
A. Intravenous (iv) Administration of Regular and Modified Insulin in Diabetic Rats
From 15 min to 45 min after iv administration, the induced hypoglycemic effect was more pronounced in regular-insulin-treated aminals.

[3] = diabetic rats, 15 min, mean ± SD
[4] = diabetic rats, 15 min, single rats
[5] = diabetic rats, 30 min, mean ± SD
[6] = diabetic rats, 30 min, single rats
[7] = diabetic rats, 45 min, mean ± SD
[8] = diabetic rats, 45 min, single rats
[9] = diabetic rats, 60 min, mean ± SD
[10] = diabetic rats, 60 min, single rats
[11] = diabetic rats, 90 min, mean ± SD
[12] = diabetic rats, 90 min, single rats
[13] = diabetic rats, 120 min, mean ± SD
[14] = diabetic rats, 120 min, single rats
[15] = diabetic rats, 180 min, mean ± SD
[16] = diabetic rats, 180 min, single rats
[17] = diabetic rats, 300 min, mean ± SD
[18] = diabetic rats, 300 min, single rats

## Cn1ccnc1 [1-methylimidazole]
Mice; ipr.
  LD50: 380 mg/kg
Mice; mouse, in vivo
  toxicity (in words): very slight
Mice; oral
  LD50: 1500 mg/kg

## Insulin: Insulin (bovine pancreas, crystalline; 25.5 μ/mg; Sigma)
[1]; oral administration
  systemic hypoglycemic effect (in words): does not result in a systemic, hypoglycemic effect
[1]; 15 min, Mean ± Std. Dev.
  Glucose: 273 ± 112 mg/100 ml
  Glucose Level (% initial level): 134 ± 20%
[1]; 15 min, single rats
  Glucose: 145 mg/100 ml and 371 mg/100 ml and 214 mg/100 ml and 363 mg/100 ml
  Glucose Level (% initial level): 119% and 155.2% and 146.6% and 115%
[1]; 30 min, Mean ± Std. Dev.
  Glucose: 325 ± 28 mg/100 ml
  Glucose Level (% initial level): 104.7 ± 19.8%
[1]; 30 min, single rats
  Glucose: 293 mg/100 ml and 343 mg/100 ml and 340 mg/100 ml
  Glucose Level (% initial level): 122.6% and 107.9% and 83.5%
[1]; 45 min, Mean ± Std. Dev.
  Glucose: 327 ± 82 mg/100 ml
  Glucose Level (% initial level): 105.6 ± 31.2%
[1]; 45 min, single rats
  Glucose: 270 mg/100 ml and 421 mg/100 ml and 290 mg/100 ml
  Glucose Level (% initial level): 113.0% and 132.4% and 71.3%
[1]; 60 min, Mean ± Std. Dev.
  Glucose: 285 ± 87 mg/100 ml
  Glucose Level (% initial level): 124.1 ± 57.9%
[1]; 60 min, single rats
  Glucose: 152 mg/100 ml and 309 mg/100 ml and 272 mg/100 ml and 329 mg/100 ml and 410 mg/100 ml and 239 mg/100 ml
  Glucose Level (% initial level): 124.6% and 129.3% and 77.5% and 225.3% and 128.9% and 58.7%
[1]; 120 min, Mean ± Std. Dev.
  Glucose: 270 ± 118 mg/100 ml
  Glucose Level (% initial level): 121.4 ± 79.4%
[1]; 120 min, single rats
  Glucose: 122 mg/100 ml and 288 mg/100 ml and 251 mg/100 ml and 392 mg/100 ml and 411 mg/100 ml and 157 mg/100 ml
  Glucose Level (% initial level): 100% and 120.5% and 71.5% and 268.5% and 129.2% and 38.6%
[1]; 180 min, Mean ± Std. Dev.
  Glucose: 331 ± 127 mg/100 ml
  Glucose Level (% initial level): 123.3 ± 76.1%
[1]; 180 min, single rats
  Glucose: 296 mg/100 ml and 226 mg/100 ml and 502 mg/100 ml and 422 mg/100 ml and 211 mg/100 ml
  Glucose Level (% initial level): 123.9% and 64.5% and 243.8% and 132.7% and 51.8%
[1]; 300 min, Mean ± Std. Dev.
  Glucose: 282 mg/100 ml
  Glucose Level (% initial level): 116.1 ± 75.0%
[1]; 300 min, single rats
  Glucose: 290 mg/100 ml and 189 mg/100 ml and 342 mg/100 ml and 391 mg/100 ml and 196 mg/100 ml
  Glucose Level (% initial level): 121.3% and 53.8% and 234.2% and 123.0% and 48.2%
[2]; [3]
  % Initial plasma glucose conc.: 63.8%
  Actual plasma glucose: 239 mg %
[2]; [4]
  % Initial plasma glucose conc.: 46.1% and 63.8% and 57.7% and 84.5% and 47.9% and 82.5%
  Actual plasma glucose: 197 mg % and 176 mg % and 214 mg % and 359 mg % and 113 mg % and 372 mg %
[2]; [5]
  % Initial plasma glucose conc.: 50.0%
  Actual plasma glucose: 185 mg %
[2]; [6]
  % Initial plasma glucose conc.: 43.9% and 53.6% and 16.2% and 69.7% and 36.9% and 79.4%
  Actual plasma glucose: 358 mg % and 159 mg % and 148 mg % and 60 mg % and 296 mg % and 87 mg %
[2]; [7]
  % Initial plasma glucose conc.: 48.3%
  Actual plasma glucose: 169 mg %
[2]; [8]
  % Initial plasma glucose conc.: 36.5% and 59.1% and 31.0% and 56.2% and 41.5% and 65.3%
  Actual plasma glucose: 296 mg % and 132 mg % and 163 mg % and 84 mg % and 239 mg % and 98 mg %
[2]; [9]
  % Initial plasma glucose conc.: 49.2 ± 15.4%
  Actual plasma glucose: 176 ± 83 mg %
[2]; [10]
  % Initial plasma glucose conc.: 38.4% and 57.6% and 27.2% and 51.8% and 48.3% and 71.6%
  Actual plasma glucose: 323 mg % and 139 mg % and 159 mg % and 101 mg % and 220 mg % and 114 mg %
[2]; [11]
  % Initial plasma glucose conc.: 53.0 ± 9%
  Actual plasma glucose: 190 ± 69 mg %
[2]; [12]
  % Initial plasma glucose conc.: 45.4% and 53.6% and 50.4% and 46.1% and 51.7% and 70.7%
  Actual plasma glucose: 319 mg % and 168 mg % and 148 mg % and 187 mg % and 196 mg % and 122 mg %
[2]; [13]
  % Initial plasma glucose conc.: 50.1 ± 10.1%
  Actual plasma glucose: 177 ± 32 mg %
[2]; [14]
  % Initial plasma glucose conc.: 42.3% and 58.0% and 56.9% and 35.1% and 60.6% and 47.8%
  Actual plasma glucose: 215 mg % and 153 mg % and 160 mg % and 211 mg % and 149 mg % and 143 mg %
[2]; [15]
  % Initial plasma glucose conc.: 57.8%
  Actual plasma glucose: 196 mg %
[2]; [16]
  % Initial plasma glucose conc.: 58.8% and 59.8% and 76.3% and 37.9% and 67.8% and 45.9%
  Actual plasma glucose: 207 mg % and 213 mg % and 165 mg % and 283 mg % and 161 mg % and 160 mg %
[2]; [17]
  % Initial plasma glucose conc.: 65.7%
  Actual plasma glucose: 225 mg %
[2]; [18]
  % Initial plasma glucose conc.: 60.8% and 58.1% and 89.2% and 46.6% and 90.7% and 48.6%
  Actual plasma glucose: 219 mg % and 220 mg % and 167 mg % and 331 mg % and 198 mg % and 214 mg %
[2]; iv administration, diabetic rat #285 treated with both agents
  hypoglycemic effect (in words), rat #285: progressive hypoglycemic effect
[2]; iv administration, diabetic rats
  hypoglycemic effect (in words): progressive, systemic, hypoglycemic effects for five hours in all animals
